Experimental data reported in ChEMBL document CHEMBL1201862, “PubChem BioAssay data set” (2004).
Activity calls are given as the source filed them.

How the values were obtained:
ORF 73 = ORF 73 (Human herpesvirus 8, UniProt O40947); experiment: inhibitors of C-LANA binding to LBS DNA, dose response, biochemical, fluorescence polarization, cherry-picked samples (AID 504725); parameters: species or system Human gammaherpesvirus 8;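 further: fluorescence polarization of a labeled DNA duplex reporting LANA DNA binding; potency is for inhibitors that block LANA binding to the DNA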
[1] = target: G-protein coupled receptor 55 (Homo sapiens, UniProt Q9Y2T6); experiment: GPR55 agonists via beta-arrestin recruitment, primary screen, imaging, U2OS cells, beta-arrestin-GFP redistribution (AID 1961); format: functional
[2] = target: T1, Dual specificity protein phosphatase 3 (Homo sapiens, UniProt P51452); experiment: VHR1 phosphatase inhibitors, primary screen, biochemical, absorbance, uHTS (AID 1654)
[3] = target: T1, Dual specificity protein phosphatase 3; experiment: VHR1 phosphatase inhibitors, biochemical (AID 1878)
[4] = target: T2, Dual specificity protein phosphatase 6 (Rattus norvegicus, UniProt Q64346); experiment: MKP-3 phosphatase inhibitors, primary screen, biochemical, rat enzyme, in vitro (AID 425)
T2 sequence (Q64346 whole entry): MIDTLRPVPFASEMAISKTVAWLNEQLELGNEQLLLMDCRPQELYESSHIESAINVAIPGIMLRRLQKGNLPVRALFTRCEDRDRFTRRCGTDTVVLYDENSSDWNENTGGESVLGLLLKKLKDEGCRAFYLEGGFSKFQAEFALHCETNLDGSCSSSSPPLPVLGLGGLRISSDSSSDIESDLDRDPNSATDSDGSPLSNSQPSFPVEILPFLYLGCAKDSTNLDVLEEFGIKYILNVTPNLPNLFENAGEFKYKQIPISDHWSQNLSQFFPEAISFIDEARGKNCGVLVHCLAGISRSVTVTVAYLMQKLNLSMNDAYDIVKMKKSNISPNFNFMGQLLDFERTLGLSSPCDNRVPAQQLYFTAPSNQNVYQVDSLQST

[5] = target: DNA dC->dU-editing enzyme APOBEC-3A (Homo sapiens, UniProt P31941); experiment: APOBEC3A DNA deaminase inhibitors, dose response, biochemical (AID 504722); format: functional
[6] = target: Glucose-6-phosphate 1-dehydrogenase (Homo sapiens, UniProt P11413); experiment: human G6PD enzyme inhibitors, dose response, selectivity assay for P. falciparum G6PD inhibitor project, biochemical, fluorescence (AID 504792); format: functional
[7] = target: DNA dC->dU-editing enzyme APOBEC-3G (Homo sapiens, UniProt Q9HC16); experiment: Dose Response confirmation of small molecule APOBEC3G DNA Deaminase Inhibitors via a fluorescence-based single-stranded DNA deaminase assay. [Related pubchem assays (depositor defined):AID493012, AID493028]; format: functional
[8] = target: T3, Tyrosine-protein phosphatase non-receptor type 11 (Homo sapiens, UniProt Q06124); experiment: SHP2 phosphatase inhibition, dose response, selectivity assay for STEP inhibitor project, biochemical (AID 602367); format: functional; conditions: read-out: IC50_Mean
T3 sequence (Q06124 whole entry): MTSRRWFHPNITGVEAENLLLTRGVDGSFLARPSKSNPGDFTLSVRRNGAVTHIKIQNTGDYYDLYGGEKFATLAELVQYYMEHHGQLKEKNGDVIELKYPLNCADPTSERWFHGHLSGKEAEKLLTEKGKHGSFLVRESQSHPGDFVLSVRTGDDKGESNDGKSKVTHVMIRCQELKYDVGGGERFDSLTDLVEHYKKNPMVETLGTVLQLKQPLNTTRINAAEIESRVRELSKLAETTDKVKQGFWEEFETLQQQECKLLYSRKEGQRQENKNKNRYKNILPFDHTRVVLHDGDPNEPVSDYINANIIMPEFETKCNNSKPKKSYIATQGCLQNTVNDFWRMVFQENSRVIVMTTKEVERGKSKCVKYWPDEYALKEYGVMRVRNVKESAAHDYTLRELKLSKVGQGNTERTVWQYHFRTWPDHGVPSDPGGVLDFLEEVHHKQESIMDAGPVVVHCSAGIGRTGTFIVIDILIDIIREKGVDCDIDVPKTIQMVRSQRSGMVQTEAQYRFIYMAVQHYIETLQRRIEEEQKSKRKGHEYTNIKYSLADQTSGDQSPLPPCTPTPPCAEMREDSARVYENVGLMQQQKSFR

[9] = target: T4, Tyrosine-protein phosphatase non-receptor type 5 (Homo sapiens, UniProt P54829); experiment: STEP phosphatase inhibitors, confirmation, biochemical, fluorescence intensity, uHTS hits (AID 602372); format: functional; conditions: read-out: IC50_Mean
T4 sequence (P54829 whole entry): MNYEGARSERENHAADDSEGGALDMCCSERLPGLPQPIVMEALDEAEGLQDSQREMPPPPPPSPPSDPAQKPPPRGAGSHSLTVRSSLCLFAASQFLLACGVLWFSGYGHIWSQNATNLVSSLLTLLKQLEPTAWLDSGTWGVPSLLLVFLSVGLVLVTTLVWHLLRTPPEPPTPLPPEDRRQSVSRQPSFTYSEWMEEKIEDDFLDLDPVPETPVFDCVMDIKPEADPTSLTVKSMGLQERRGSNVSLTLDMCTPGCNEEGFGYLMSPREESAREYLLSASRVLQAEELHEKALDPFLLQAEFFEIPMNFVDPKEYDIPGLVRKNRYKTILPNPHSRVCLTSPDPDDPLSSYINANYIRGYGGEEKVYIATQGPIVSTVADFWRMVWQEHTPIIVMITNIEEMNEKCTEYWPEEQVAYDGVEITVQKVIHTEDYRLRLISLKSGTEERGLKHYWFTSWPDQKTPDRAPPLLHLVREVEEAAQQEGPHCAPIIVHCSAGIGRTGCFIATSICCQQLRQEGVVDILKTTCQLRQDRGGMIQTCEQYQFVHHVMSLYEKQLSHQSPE

[10] = target: T1, Dual specificity protein phosphatase 3; experiment: VHR phosphatase inhibition, dose response, selectivity assay for STEP inhibitor project, biochemical (AID 602374); format: functional; conditions: read-out: IC50_Mean
[11] = target: T5, Tyrosine-protein phosphatase non-receptor type 22 (Homo sapiens, UniProt Q9Y2R2); experiment: PTPN22 phosphatase inhibition, dose response, selectivity assay for STEP inhibitor project, biochemical (AID 624241); format: functional
T5 sequence (Q9Y2R2 whole entry): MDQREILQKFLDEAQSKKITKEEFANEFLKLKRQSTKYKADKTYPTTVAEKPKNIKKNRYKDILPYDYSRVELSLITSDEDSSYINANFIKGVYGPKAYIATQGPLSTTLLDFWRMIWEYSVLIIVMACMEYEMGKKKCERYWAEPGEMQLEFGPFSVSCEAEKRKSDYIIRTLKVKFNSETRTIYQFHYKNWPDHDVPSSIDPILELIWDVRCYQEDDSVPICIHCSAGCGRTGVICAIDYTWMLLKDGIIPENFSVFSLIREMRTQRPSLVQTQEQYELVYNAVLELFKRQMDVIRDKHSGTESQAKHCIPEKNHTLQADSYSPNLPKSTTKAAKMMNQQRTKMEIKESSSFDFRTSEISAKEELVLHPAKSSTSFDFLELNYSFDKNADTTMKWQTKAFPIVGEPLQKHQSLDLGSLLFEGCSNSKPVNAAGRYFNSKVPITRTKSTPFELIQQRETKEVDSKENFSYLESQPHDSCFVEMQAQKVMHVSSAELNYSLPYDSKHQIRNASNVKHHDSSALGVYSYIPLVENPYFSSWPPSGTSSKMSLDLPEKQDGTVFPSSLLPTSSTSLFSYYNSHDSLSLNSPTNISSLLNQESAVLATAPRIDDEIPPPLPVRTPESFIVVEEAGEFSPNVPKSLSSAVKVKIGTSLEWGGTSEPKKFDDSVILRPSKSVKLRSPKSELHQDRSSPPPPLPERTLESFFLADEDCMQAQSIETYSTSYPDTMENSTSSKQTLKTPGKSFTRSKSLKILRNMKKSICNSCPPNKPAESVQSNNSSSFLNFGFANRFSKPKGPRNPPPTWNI

[12] = target: Neurotensin receptor type 1 (Homo sapiens, UniProt P30989); format: functional;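 further: Image-based confirmatory dose-response assay measuring agonist activity at NTR1; NTR1-expressing U2OS osteosarcoma cells imaged for beta-arrestin GFP spot formation; agonist potency where compounds increase beta-arrestin recruitment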
CHO = experiment: cytotoxicity in TLR9-MyD88 CHO cells, dose response, cytotoxicity control for TLR9-MyD88 binding inhibitor project, cell-based, luminescence (AID 588339); format: functional, hamster; conditions: Cricetulus griseus;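 further: CHO cells stably coexpressing TLR9 and MyD88 fusions from primary screen; compound exposure lasted 48 hours before viability readout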
Beta Lactamase = Beta Lactamase (Pseudomonas aeruginosa, UniProt Q932Y6); experiment: beta-lactamase reporter inhibitor potency, dose response, artefact control for TLR9-MyD88 binding inhibitor project, BLA reporter cells, FRET fluorescence (AID 588341); format: cell-based;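 further: cell based assay in CHO-K1 cells stably expressing beta-lactamase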
INS1 = experiment: beta cell apoptosis inhibitors, cytokine rescue, dose response, luminescence, retest (AID 449756); format: functional, cell-based; conditions: Rattus norvegicus;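 further: cell death triggered by IL-1 beta plus TNF-alpha plus IFN-gamma mixture; protective hits raise ATP signal compared with cytokine alone wells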
[13] = MDA-MB-231 cell growth inhibition, dose response, cytotoxicity control for RAD54 inhibitor project, CellTiter-Glo luminescence, cherry-pick (AID 651692); format: functional, cell-based
[14] = target: T6, DNA repair and recombination protein RAD54-like (Homo sapiens, UniProt Q92698); experiment: inhibitors of human RAD54 branch migration, confirmation, biochemical, fluorescence, cherry-picked samples, dose series (AID 651657); format: functional
T6 sequence (Q92698 whole entry): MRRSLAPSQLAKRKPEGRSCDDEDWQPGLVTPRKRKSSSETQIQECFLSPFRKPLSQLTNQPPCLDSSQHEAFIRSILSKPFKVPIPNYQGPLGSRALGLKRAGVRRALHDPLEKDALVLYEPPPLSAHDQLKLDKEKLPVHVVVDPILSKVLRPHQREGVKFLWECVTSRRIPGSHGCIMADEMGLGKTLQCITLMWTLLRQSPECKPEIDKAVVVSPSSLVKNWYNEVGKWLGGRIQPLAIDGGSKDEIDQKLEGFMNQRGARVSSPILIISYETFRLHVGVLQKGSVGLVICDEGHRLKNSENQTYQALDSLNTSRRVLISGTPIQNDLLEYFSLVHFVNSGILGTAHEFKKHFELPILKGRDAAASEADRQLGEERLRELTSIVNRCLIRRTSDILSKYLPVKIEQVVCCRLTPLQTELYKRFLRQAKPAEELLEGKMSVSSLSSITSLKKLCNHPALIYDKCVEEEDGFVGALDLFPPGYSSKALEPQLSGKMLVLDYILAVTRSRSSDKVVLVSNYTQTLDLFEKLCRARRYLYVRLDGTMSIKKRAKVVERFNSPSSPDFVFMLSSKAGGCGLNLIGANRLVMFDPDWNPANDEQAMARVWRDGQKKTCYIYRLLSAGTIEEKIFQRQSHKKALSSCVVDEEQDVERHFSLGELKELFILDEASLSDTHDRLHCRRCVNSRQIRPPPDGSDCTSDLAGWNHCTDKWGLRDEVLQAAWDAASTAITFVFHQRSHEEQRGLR

[15] = target: SWI/SNF-related matrix-associated actin-dependent regulator of chromatin subfamily A member 2 (Homo sapiens, UniProt P51531); experiment: Luminescence-based cell-based high throughput dose response assay to identify activators of the function of SWI/SNF related, matrix associated, actin dependent regulator of chromatin, subfamily a, member 2 (SMARCA2, BRM).; format: functional
[16] = Counterscreen for activators of the function of SWI/SNF related, matrix associated, actin dependent regulator of chromatin, subfamily a, member 2 (SMARCA2, BRM): Luminescence-based cell-based high throughput dose response assay to identify non-selective compounds using the VP16 reporter assay.; format: functional
Paired box protein Pax-8 = Paired box protein Pax-8 (Homo sapiens, UniProt Q06710); experiment: inhibitors of PAX8-driven TPO luciferase reporter, dose response, RMG-I cells, cherry-pick (AID 687027); format: functional, cell-based;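 further: luciferase reporter driven by Pax8 target thyroperoxidase promoter measured by SteadyGlo luminescence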
[17] = non-specific cell cytotoxicity, dose response, cytotoxicity control for PAX8 inhibitor project, plate reader, dry powder samples (AID 743021); format: functional, cell-based
Trypsin = Trypsin (Sus scrofa, UniProt P00761); experiment: porcine trypsin inhibitors, dose response, selectivity assay for Rce1 protease inhibitor project, biochemical, quenched peptide fluorescence, cherry-pick (AID 488789)
CAAX prenyl protease 2 = CAAX prenyl protease 2 (Saccharomyces cerevisiae S288c, UniProt Q03530); format: biochemical
[18] = target: T1, Dual specificity protein phosphatase 3; experiment: SAR VHR1 Fluorescent Assay for In Vitro dose response studies. [Related pubchem assays (depositor defined):AID1654, AID1661, AID1878, AID1992, AID2004, AID2070, AID2085]; format: functional
[19] = target: T7, Tyrosine-protein phosphatase non-receptor type 7 (Homo sapiens, UniProt P35236); experiment: redox-dependent HePTP inhibition, mechanism study, biochemical, fluorescence (AID 2068); format: functional
T7 sequence (P35236 whole entry): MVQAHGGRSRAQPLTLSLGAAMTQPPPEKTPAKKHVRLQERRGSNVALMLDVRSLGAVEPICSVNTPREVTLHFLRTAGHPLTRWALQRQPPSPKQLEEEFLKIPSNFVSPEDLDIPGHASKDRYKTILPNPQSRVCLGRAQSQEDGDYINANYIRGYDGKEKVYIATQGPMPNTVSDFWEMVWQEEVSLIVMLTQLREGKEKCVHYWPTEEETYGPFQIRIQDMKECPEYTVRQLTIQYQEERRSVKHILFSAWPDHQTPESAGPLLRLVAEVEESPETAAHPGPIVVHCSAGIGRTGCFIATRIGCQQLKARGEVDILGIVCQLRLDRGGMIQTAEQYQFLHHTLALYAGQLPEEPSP

T1 sequence (P51452 whole entry): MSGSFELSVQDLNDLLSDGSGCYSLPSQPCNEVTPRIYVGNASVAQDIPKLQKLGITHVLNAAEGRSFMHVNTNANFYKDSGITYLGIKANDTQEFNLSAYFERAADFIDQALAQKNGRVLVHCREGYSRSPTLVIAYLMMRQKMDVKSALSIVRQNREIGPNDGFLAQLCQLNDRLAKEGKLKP
Chain of DNA dC->dU-editing enzyme APOBEC-3G (Q9HC16 whole entry): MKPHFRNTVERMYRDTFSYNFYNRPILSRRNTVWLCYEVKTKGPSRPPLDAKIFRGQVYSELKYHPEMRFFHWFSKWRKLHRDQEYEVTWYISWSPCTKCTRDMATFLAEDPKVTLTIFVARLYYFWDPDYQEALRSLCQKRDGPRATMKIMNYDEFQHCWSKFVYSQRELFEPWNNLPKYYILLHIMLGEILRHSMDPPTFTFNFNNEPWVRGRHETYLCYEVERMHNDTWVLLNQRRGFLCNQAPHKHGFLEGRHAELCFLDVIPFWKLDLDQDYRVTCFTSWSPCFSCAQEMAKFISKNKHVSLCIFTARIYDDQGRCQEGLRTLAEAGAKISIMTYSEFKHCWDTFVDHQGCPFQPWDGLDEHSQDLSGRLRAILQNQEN
Chain of DNA dC->dU-editing enzyme APOBEC-3A (P31941 whole entry): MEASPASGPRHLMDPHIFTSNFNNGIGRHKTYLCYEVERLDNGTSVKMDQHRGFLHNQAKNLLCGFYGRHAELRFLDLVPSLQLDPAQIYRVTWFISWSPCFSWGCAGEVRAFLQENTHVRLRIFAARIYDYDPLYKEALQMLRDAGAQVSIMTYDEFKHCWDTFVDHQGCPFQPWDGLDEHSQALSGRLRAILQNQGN
Chain of Neurotensin receptor type 1 (P30989 whole entry, the tested form may be a part): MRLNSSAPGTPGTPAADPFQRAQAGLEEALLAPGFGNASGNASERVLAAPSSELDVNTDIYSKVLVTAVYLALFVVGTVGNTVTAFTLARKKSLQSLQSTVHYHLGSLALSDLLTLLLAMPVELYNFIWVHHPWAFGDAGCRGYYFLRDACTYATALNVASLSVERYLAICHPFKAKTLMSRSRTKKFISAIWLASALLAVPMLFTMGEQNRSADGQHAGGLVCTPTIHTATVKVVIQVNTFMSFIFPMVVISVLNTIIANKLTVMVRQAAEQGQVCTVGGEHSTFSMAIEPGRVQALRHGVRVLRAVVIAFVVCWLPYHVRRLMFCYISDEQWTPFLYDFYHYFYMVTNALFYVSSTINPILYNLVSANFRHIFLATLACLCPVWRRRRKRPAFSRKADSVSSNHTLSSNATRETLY
Chain of Beta Lactamase (Q932Y6 whole entry): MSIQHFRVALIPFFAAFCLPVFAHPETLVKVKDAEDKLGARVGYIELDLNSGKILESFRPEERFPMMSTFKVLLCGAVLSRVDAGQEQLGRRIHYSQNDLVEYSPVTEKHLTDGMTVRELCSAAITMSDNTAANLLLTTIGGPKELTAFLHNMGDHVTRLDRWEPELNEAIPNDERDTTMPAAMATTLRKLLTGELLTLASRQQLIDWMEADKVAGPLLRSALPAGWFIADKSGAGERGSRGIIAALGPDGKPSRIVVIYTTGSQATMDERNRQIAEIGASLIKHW
Chain of CAAX prenyl protease 2 (Q03530 whole entry): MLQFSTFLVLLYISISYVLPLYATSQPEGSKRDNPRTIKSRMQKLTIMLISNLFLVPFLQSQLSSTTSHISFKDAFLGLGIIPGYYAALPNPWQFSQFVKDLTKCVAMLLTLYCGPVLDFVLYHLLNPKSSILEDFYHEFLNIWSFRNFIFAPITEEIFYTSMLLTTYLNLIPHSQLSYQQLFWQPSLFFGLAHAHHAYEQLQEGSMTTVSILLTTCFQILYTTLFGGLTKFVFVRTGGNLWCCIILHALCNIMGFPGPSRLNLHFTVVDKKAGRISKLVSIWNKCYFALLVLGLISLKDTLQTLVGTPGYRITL
Chain of ORF 73 (O40947 whole entry): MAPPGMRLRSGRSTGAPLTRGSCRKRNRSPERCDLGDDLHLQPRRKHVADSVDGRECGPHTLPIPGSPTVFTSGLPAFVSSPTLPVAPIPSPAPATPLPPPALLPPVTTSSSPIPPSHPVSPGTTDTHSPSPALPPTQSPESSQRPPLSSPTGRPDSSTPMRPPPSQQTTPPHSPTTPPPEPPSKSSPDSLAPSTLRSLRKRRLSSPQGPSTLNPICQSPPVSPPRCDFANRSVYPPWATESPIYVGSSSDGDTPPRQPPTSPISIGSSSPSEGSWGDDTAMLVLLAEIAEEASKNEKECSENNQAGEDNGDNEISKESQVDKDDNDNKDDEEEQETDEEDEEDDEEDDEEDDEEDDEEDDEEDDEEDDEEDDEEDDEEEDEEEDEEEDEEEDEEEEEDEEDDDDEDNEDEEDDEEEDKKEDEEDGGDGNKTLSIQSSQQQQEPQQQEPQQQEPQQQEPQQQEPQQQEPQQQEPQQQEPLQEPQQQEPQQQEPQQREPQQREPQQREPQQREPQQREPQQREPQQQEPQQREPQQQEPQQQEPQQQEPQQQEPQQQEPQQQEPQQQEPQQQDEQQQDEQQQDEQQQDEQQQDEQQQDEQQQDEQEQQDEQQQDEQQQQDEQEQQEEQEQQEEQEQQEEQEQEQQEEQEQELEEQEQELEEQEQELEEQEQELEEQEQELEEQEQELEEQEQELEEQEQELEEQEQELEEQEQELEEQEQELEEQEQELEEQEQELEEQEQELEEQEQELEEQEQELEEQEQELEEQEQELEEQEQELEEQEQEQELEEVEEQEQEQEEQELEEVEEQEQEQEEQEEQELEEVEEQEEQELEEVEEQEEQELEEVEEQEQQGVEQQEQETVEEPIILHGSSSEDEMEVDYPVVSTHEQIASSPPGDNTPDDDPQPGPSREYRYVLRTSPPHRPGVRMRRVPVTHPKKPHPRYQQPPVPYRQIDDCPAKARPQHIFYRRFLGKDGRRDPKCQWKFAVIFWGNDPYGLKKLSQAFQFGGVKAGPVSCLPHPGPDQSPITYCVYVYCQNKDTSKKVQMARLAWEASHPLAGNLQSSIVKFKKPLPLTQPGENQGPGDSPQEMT
Chain of Trypsin (P00761 whole entry): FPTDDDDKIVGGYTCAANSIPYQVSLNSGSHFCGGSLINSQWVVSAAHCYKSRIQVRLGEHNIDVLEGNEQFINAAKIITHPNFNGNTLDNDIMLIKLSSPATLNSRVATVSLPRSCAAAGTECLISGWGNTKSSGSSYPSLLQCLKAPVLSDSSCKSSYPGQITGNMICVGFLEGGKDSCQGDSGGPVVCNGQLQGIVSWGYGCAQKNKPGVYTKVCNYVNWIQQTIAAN
Chain of Glucose-6-phosphate 1-dehydrogenase (P11413 whole entry): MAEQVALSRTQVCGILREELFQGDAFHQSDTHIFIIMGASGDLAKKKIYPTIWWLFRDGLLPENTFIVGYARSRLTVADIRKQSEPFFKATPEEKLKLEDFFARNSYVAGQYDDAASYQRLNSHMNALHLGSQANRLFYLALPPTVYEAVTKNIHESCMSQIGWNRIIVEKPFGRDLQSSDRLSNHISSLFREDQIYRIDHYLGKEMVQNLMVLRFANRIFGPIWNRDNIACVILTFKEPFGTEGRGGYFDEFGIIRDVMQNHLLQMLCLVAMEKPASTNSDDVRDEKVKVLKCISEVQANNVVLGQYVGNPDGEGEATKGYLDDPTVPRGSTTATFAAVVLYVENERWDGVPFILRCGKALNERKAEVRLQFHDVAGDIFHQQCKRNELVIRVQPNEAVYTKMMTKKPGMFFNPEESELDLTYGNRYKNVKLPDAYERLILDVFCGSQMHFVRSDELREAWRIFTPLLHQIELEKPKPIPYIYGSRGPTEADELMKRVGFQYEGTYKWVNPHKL
Chain of Paired box protein Pax-8 (Q06710 whole entry): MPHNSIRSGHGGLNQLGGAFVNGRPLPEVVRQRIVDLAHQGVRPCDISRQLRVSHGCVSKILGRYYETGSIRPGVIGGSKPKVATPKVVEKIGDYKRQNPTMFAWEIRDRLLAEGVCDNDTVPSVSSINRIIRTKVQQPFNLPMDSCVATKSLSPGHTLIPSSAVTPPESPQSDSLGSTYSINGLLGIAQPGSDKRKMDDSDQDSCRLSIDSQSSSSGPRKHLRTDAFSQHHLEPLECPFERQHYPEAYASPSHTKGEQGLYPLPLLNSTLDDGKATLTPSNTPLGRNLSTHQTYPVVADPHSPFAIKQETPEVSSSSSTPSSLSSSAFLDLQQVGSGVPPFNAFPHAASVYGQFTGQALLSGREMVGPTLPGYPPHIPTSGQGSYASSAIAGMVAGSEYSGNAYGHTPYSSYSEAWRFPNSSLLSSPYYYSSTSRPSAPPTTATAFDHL
Chain of G-protein coupled receptor 55 (Q9Y2T6 whole entry): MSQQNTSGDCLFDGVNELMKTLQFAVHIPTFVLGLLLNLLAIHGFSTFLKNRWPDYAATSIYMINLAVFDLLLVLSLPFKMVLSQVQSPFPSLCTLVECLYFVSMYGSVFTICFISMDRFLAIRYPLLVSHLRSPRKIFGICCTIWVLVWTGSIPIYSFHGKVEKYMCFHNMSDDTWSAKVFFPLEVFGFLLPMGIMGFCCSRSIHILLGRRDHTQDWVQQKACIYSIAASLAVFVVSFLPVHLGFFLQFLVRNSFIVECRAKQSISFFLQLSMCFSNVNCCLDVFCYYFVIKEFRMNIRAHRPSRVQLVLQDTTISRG

O=c1ccc2cc3c4c(c2o1)CCCN4CCC3
AC50 (ORF 73): 12.6 µM (active)

Cc1cc2ncn(-c3nnnn3-c3ccccc3)c2cc1C
EC50 [1]: 20 µM (inactive)

CN1CCN(C(=S)C(=O)Nc2ccc(Br)cc2)CC1
IC50 [2]: 4 µM (active)
IC50 [3]: 8.52 µM (active)
IC50 [4]: > 158 µM (not active)
IC50 [5]: > 100 µM (inactive)
IC50 [6]: > 80 µM (inactive)
IC50 [7]: 5.11 µM (active)
IC50 [8]: 431 nM (active)
IC50 [9]: 6.57 µM (active)
IC50 [10]: 386 nM (active)
IC50 [11]: 9.73 µM (active)

COc1ccc(Cn2cc3c(-c4ccc(F)cc4)nnc-3c3cc(OC)c(OC)cc32)cc1
EC50 [12]: 5.72 µM (active)
IC50 (CHO): 11.9 µM (inactive)
IC50 (Beta Lactamase): 5.58 µM (active)
AC50 (INS1): 6.94 µM (active)
AC50 [13]: 15.3 µM (active)
AC50 [14]: 7.21 µM (active)
EC50 [15]: > 91.2 µM (inactive)
EC50 [16]: > 91.2 µM (inactive)
AC50 (Paired box protein Pax-8): 12.9 µM (active)
AC50 [17]: 29.5 µM (active)

C=CCOc1ccc(-c2nnc(S)o2)cc1
AC50 (Trypsin): 3.91 µM (active)
AC50 (CAAX prenyl protease 2): 22.6 µM (active)

O=C(Nc1ccc2nc(-c3ccco3)c(-c3ccco3)nc2c1)N1CCC(c2ccccc2)C1 (stereo not drawn)
IC50 [18]: 14.7 µM (active)
IC50 [19]: 550 nM (active)

Sc1nnc(-c2cccnc2)n1/N=C/C=C/c1ccccc1
IC50 [5]: > 100 µM (inactive)
IC50 [7]: 2.33 µM (active)
